From publication PMC3622683, “Purification, Gene Cloning, and Biochemical Characterization of a β-Glucosidase Capable of Hydrolyzing Sesaminol Triglucoside from Paenibacillus sp. KB0549” (PLoS ONE, 2013)

Molecular target: T1, rPSTG (recombinant PSTG, STG-hydrolyzing β-glucosidase) (Paenibacillus relictisesami, UniProt D6RVX0)
T1 construct: full-length 753 aa, 83,298 Da, no signal peptide; expressed from pDEST17 in E. coli BL21-AI, HisTrap purified (tag cleavage not mentioned); likely tetramer, 310 kDa; GH3
T1 sequence (D6RVX0 1-753): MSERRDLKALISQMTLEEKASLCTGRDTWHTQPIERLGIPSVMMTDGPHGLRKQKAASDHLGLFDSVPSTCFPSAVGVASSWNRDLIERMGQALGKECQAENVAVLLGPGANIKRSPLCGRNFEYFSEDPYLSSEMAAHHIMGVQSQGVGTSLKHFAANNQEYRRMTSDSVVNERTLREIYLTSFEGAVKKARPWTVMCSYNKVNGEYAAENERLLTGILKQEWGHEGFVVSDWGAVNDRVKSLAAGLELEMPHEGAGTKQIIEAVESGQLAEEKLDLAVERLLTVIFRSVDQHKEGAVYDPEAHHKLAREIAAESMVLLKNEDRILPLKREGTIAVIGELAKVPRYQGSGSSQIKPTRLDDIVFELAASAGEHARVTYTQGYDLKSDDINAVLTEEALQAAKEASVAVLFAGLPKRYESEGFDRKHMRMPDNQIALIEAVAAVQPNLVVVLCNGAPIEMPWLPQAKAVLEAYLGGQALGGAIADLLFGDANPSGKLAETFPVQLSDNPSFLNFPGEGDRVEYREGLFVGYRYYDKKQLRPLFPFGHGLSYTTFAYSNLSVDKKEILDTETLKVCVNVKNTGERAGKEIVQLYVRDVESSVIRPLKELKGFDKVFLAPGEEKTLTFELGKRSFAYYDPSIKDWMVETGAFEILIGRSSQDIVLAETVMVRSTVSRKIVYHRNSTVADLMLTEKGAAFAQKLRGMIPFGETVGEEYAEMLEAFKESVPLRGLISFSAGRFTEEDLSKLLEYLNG
Test: p-nitrophenol release, absorbance at […] nm
Assay type: biochemical
Conditions: pH 7.0, 37°C, potassium phosphate

- Km: > 10 mM
Compound: C[C@H]1O[C@@H](Oc2ccc([N+](=O)[O-])cc2)[C@H](O)[C@@H](O)[C@H]1O [pNP-β-D-fucopyranoside]
